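1) Cells in 96-well plates. 2) Compound, 48 h, 5 concentrations. 3) Linear interpolation between surrounding doses. 4) Unreached endpoint = highest concentration. GI50 is the concentration that inhibits growth by half. Definition used: TGI = concentration required for complete inhibition of growth.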
Columns and labels:
Experiment in all cases: NCI anticancer screen, dose series, 48 h
BT-549 breast = test system: BT-549 breast
DU-145 prostate = test system: DU-145 prostate
HL-60(TB) leukemia = test system: HL-60(TB) leukemia
K-562 leukemia = test system: K-562 leukemia
MOLT-4 leukemia = test system: MOLT-4 leukemia
OVCAR-5 ovarian = test system: OVCAR-5 ovarian
OVCAR-8 ovarian = test system: OVCAR-8 ovarian
U251 CNS = test system: U251 CNS

Row | Compound | GI50 (BT-549 breast) | TGI (BT-549 breast) | GI50 (DU-145 prostate) | TGI (DU-145 prostate) | GI50 (HL-60(TB) leukemia) | TGI (HL-60(TB) leukemia) | GI50 (K-562 leukemia) | TGI (K-562 leukemia) | GI50 (MOLT-4 leukemia) | TGI (MOLT-4 leukemia) | GI50 (OVCAR-5 ovarian) | TGI (OVCAR-5 ovarian) | GI50 (OVCAR-8 ovarian) | TGI (OVCAR-8 ovarian) | GI50 (U251 CNS) | TGI (U251 CNS)
1 | O=C1/C(=C\c2ccc(Cl)cc2)CN(C(=O)c2ccccc2)C/C1=C\c1ccc(Cl)cc1 | 2.89 µM | 7.17 µM | 4.12 µM | > 56.4 µM | 6.58 µM | 66.2 µM | 1.98 µM | > 100 µM | 4.25 µM | > 100 µM | 5.24 µM | 43.2 µM | 3.41 µM | > 100 µM | 1.57 µM | 3.26 µM
2 | Clc1ccc(Nc2ncnc3ccccc23)cc1 | 72.8 µM | > 100 µM | 26.4 µM | > 100 µM | 36.7 µM | > 100 µM | 28 µM | > 100 µM | 20.6 µM | 59.5 µM | > 100 µM | > 100 µM | 59.2 µM | > 100 µM | 72.5 µM | > 100 µM
3 | O=C(NC(=S)Nc1ccc(-c2nc3ccccc3[nH]2)cc1)c1ccc2ccccc2c1 | 2.2 µM | 6.73 µM | 3.9 µM | > 100 µM | 6.31 µM | 26 µM | 13.3 µM | > 100 µM | 8.04 µM | > 100 µM | 3.75 µM | 16.6 µM | 4.11 µM | > 100 µM | 3.62 µM | 18.1 µM
4 | CCOC(=O)c1c2c(n(Cc3ccccc3)c1C)-c1nc[nH]c1C(=O)C2=O | 17 µM | 31.1 µM | 9.83 µM | 21.5 µM | 2.61 µM | 10.3 µM | 3.08 µM | 19.1 µM | 2.84 µM | 10.3 µM | – | – | 14.8 µM | 28 µM | 14.7 µM | 27.8 µM
5 | COc1cc2cc(Oc3ccc(NC(=O)Nc4ccc(F)c(C(F)(F)F)c4)cc3)c(C)nc2cc1OCCN1CCOCC1 | 2.44 µM | 8.46 µM | 3.5 µM | 15.2 µM | 2.38 µM | 6.14 µM | 0.88 µM | 10.3 µM | 1.86 µM | 11.4 µM | 5.11 µM | 21.7 µM | 2.73 µM | > 100 µM | 2.83 µM | 11.1 µM
6 | O=C1NC(=N[C@@H]2C[C@H]2c2ccccc2)S/C1=C\c1ccc2ncccc2c1 | 1.57 µM | 6.49 µM | 1.94 µM | 24.9 µM | 0.876 µM | 9.47 µM | 1.42 µM | > 25 µM | 4.29 µM | 21.8 µM | 4.33 µM | > 20.7 µM | 2.05 µM | 9.69 µM | 0.875 µM | 6.94 µM
7 | O=C(CSc1nc2ccc([N+](=O)[O-])cc2[nH]1)Nc1ccc([N+](=O)[O-])cc1 | 2.34 µM | 14.3 µM | 3.51 µM | 15.6 µM | 2.81 µM | > 25.7 µM | 2.49 µM | > 100 µM | 2.81 µM | > 32.3 µM | 2.78 µM | 12.9 µM | 2.79 µM | > 35.7 µM | 2.62 µM | 15.5 µM
